Test results reported in patent US10196401B2, “Spiro-lactam NMDA receptor modulators and uses thereof” (Aptinyx Inc., priority 2016, dated 2019).

Tests used:
NMDAR2B = NMDAR2B (Homo sapiens, UniProt Q13224); assay: Potentiation of [3H]MK-801 binding, NMDAR2B; set-up: species or system rat; conditions: NMDAR2B binding profile; for % 1 mM Glycine: relative to 1 mM glycine
NMDAR2C = NMDAR2C (Homo sapiens, UniProt Q14957); assay: Potentiation of [3H]MK-801 binding, NMDAR2C; set-up: species or system rat; conditions: NMDAR2C binding profile; for % 1 mM Glycine: relative to 1 mM glycine
NMDAR2C, sequence (Q14957 20-1233, species assumed, other chains not shown): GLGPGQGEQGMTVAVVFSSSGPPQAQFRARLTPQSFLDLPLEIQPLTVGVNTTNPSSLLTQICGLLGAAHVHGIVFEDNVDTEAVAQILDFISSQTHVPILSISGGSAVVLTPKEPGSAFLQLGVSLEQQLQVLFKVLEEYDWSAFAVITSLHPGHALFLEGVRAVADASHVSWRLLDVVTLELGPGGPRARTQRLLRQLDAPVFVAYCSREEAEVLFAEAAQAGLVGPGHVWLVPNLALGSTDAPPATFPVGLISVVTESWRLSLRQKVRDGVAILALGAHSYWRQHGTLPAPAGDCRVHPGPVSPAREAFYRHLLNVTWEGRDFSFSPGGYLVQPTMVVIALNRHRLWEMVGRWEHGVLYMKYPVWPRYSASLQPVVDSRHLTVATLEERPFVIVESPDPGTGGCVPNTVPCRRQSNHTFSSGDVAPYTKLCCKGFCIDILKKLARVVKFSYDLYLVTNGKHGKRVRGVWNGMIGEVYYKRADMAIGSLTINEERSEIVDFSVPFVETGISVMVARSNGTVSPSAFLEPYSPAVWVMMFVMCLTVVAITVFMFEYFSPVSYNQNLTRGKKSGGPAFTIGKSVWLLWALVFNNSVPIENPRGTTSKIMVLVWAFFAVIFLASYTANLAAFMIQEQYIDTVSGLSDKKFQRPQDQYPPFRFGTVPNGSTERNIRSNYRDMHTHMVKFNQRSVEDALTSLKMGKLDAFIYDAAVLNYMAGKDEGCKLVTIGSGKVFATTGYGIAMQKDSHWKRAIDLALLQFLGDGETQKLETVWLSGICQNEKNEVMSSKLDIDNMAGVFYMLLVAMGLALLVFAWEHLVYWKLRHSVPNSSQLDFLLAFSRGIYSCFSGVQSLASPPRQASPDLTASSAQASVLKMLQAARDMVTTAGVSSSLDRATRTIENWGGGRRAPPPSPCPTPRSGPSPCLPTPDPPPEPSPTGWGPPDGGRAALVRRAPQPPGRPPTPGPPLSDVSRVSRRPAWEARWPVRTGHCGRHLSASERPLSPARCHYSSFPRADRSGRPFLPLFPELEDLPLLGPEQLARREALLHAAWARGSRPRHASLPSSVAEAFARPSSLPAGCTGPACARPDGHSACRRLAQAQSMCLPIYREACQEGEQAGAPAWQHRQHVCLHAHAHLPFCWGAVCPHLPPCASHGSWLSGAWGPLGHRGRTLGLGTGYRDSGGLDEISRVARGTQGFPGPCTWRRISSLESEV

NMDAR2D = NMDAR2D (Homo sapiens, UniProt O15399); assay: Potentiation of [3H]MK-801 binding, NMDAR2D; set-up: species or system rat; conditions: NMDAR2D binding profile; for % 1 mM Glycine: relative to 1 mM glycine
NMDAR2D, sequence (O15399 28-1336, species assumed, other chains not shown): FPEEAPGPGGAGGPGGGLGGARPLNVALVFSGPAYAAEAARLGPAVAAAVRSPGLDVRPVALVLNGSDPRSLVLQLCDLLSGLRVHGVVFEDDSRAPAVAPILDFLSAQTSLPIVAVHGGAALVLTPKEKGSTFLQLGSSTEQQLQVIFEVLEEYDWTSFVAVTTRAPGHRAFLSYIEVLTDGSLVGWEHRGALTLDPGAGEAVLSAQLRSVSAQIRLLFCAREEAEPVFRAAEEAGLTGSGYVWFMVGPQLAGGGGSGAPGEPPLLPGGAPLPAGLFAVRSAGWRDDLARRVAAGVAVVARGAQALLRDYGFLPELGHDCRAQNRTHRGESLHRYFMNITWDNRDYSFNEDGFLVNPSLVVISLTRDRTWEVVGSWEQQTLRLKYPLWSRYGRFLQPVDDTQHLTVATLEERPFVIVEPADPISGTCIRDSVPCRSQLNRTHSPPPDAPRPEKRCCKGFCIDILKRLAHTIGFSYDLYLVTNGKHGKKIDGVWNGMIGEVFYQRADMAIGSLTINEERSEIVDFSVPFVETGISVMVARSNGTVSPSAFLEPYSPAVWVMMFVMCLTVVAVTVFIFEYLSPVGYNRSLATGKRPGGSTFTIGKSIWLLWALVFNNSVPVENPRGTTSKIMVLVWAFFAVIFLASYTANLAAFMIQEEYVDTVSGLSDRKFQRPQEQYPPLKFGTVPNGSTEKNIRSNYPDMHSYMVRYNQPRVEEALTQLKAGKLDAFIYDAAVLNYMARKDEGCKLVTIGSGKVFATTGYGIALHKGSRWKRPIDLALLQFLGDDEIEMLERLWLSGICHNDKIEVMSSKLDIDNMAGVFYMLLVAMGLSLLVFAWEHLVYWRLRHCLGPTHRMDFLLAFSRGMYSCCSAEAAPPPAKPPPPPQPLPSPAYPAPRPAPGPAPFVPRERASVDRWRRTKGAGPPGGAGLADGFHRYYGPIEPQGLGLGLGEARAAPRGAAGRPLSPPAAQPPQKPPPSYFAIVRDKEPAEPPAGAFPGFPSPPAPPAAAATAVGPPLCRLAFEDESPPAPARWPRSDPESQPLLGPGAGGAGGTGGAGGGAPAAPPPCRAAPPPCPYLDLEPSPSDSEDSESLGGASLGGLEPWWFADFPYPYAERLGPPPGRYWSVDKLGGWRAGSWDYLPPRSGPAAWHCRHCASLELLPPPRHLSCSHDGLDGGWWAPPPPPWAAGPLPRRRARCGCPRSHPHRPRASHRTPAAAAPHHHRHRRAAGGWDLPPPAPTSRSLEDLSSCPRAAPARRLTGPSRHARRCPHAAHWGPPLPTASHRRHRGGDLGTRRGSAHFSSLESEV
Description: (§1) Assays were conducted as described by Moskal et al., “GLYX-13: a monoclonal antibody-derived peptide that acts as an N-rnethyl-D-aspartate receptor modulator,” Neuropharmacology, 49, 1077-87, 2005. The potentiation of [^3H]MK-801 binding (5 nrM; 22.5 Ci/mmol) to well washed rat cortical membranes (200 μg) was measured under non-equilibrium conditions (15 min @ 25° C.) in the presence of increasing concentrations of Compound A.
(§2) Assays were conducted as described above in Example 5, by Moskal et al. (2005).

NMDAR2A = NMDAR2A (Homo sapiens, UniProt Q12879); assay: Potentiation of [3H]MK-801 binding, NMDAR2A; set-up: species or system rat; conditions: NMDAR2A binding profile; for % 1 mM Glycine: relative to 1 mM glycine
NMDAR2A, sequence (Q12879 23-1464, species assumed, other chains not shown): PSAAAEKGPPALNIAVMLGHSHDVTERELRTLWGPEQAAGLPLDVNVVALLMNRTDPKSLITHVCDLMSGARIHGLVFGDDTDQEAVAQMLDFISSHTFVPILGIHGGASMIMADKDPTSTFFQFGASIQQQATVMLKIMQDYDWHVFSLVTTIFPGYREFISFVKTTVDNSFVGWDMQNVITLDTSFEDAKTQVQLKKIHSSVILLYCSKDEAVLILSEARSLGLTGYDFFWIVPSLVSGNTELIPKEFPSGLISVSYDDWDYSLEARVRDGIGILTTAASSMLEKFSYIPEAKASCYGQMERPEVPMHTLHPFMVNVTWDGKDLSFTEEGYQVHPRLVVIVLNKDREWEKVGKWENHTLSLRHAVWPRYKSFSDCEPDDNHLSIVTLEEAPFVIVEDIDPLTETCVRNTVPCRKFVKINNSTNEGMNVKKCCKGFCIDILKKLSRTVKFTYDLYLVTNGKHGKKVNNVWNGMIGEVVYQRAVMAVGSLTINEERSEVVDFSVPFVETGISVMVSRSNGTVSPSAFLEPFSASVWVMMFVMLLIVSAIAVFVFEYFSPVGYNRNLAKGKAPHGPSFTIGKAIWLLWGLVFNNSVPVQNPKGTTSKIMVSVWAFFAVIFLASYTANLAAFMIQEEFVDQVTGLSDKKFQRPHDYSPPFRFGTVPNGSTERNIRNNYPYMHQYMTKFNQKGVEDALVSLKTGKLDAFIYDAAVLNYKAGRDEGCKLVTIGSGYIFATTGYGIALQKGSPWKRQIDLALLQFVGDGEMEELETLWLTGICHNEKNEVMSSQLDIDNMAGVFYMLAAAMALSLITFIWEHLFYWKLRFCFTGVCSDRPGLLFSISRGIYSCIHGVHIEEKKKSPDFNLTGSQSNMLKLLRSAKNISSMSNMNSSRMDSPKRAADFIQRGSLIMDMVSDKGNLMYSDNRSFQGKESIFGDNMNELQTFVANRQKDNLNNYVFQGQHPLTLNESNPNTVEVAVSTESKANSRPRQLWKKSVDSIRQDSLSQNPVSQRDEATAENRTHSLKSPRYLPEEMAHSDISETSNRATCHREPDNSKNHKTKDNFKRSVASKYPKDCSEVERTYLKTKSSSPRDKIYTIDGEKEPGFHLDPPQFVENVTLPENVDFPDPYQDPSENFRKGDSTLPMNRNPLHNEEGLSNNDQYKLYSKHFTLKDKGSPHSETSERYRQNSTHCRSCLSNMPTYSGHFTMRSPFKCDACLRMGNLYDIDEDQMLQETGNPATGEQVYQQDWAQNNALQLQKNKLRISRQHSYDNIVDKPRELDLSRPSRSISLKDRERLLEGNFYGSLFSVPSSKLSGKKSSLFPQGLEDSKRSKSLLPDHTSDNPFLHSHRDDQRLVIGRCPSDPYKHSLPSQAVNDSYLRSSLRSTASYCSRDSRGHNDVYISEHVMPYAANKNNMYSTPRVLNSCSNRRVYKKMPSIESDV
Description: as §1, §2

Sprague Dawley rats = assay: Bennett model of mechanical analgesia (paw withdrawal threshold); format: in vivo, rat; conditions: 150 mg/kg PO; tested 1 h, 24 hrs and 1 week post-dosing
Description: Bennett G J, Xie Y K, “A peripheral mononeuropathy in rat that produces disorders of pain sensation like those seen in man,” Pain 33:87-107, 1988. […] Vehicle animals receive the surgery and then receive vehicle rather than test compound. Animals were tested 1 hr, 24 h and 1 wk post-test compound or vehicle administration.
Male 2-3 month old Sprague Dawley rats were used. Harlan was the supplier for all studies. Rats were housed in Lucite cages with aspen wood chip bedding, maintained on a 12:12 light:dark cycle (lights on at 5 AM), and given ad libitum access to Purina lab chow (USA) and tap water throughout the study.
Rats were anesthetized using inhaled isoflurane (2.5%). Spared nerve injury surgery was performed as previously described (Bennett and Xie, 1988). An incision (˜1.5 cm in length) was made with a scalpel blade dorsally through skin on the right hindlimb, parallel and posterior to femur. Using a small pointed hemostat, the biceps femoris and gluteus superficialis muscles were separated. Using curved blunt forceps, the common sciatic nerve was isolated and exposed. For the mechanical analgesia studies, the whole sciatic nerve was ligated. Using hemostats/forceps and chromic gut (5-0), the nerve was loosely ligated with a square knot; 3 ligatures, 1 mm apart were placed on the nerve. […] For the thermal analgesia studies, the common peroneal and tibial branches of the sciatic nerve were ligated and cut, and the sural branch was spared. See Decosterd I, Woolf C J, “Spared nerve injury: an animal model of persistent peripheral neuropathic pain,” Pain 87:149-158, 2000. Testing occurred 1-2 weeks post-surgery.
During testing, rats were acclimated to the surface of a suspended wire mesh grid (1 cm×1 cm, with the wire being 0.3 cm in diameter) for 15-20 min. Starting from the smallest, each Von Frey filament was pressed perpendicularly to the plantar surface of the affected (ipsilateral) hindpaw until slightly bent and then held for 6 second. […]

Row | SMILES | Conclusion (NMDAR2B) | % 1 mM Glycine (NMDAR2B) | Conclusion (NMDAR2C) | % 1 mM Glycine (NMDAR2C) | Conclusion (NMDAR2D) | % 1 mM Glycine (NMDAR2D) | Conclusion (NMDAR2A) | % 1 mM Glycine (NMDAR2A) | analgesic effect in the Bennett model (Sprague Dawley rats)
1 | C[C@@H](O)[C@@H](C(N)=O)N1C[C@]2(CCCN2C(=O)OC(C)(C)C)C1=O [Compound W, tert-butyl (R)-2-((2S,3R)-1-amino-3-hydroxy-1-oxobutan-2-yl)-1-oxo-2,5-diazaspiro[3.4]octane-5-carboxylate] | WT2B agonist | 53.09% | WT2C agonist | 67.5% | agonist | 66.72% | WT2A agonist | 18.33% | 
2 | C[C@@H](O)[C@@H](C(N)=O)N1C[C@@]2(CCCN2C(=O)OC(C)(C)C)C1=O [Compound X, tert-butyl (S)-2-((2S,3R)-1-amino-3-hydroxy-1-oxobutan-2-yl)-1-oxo-2,5-diazaspiro[3.4]octane-5-carboxylate] | WT2B agonist | 59.55% | WT2C agonist | 59.73% | agonist | 93.58% | WT2A agonist | 41.04% | 
3 | CC(C)C(=O)N1CCC[C@]12CN([C@H](C(N)=O)[C@@H](C)O)C2=O [Compound Y, (2S,3R)-3-hydroxy-2-((R)-5-isobutyryl-1-oxo-2,5-diazaspiro[3.4]octan-2-yl)butanamide] | WT2B agonist | 70.74% | WT2C agonist | 64.24% | agonist | 54.85% | WT2A agonist | 61.76% | 
4 | CC(C)C(=O)N1CCC[C@@]12CN([C@H](C(N)=O)[C@@H](C)O)C2=O [Compound Z, (2S,3R)-3-hydroxy-2-((S)-5-isobutyryl-1-oxo-2,5-diazaspiro[3.4]octan-2-yl)butanamide] | WT2B agonist | 70.49% | WT2C agonist | 47.76% | agonist | 65.32% | WT2A agonist | 42.5% | 
5 | NCC1(CC(=O)O)CCCCC1 [gabapentin, reference compound] |  |  |  |  |  |  |  |  | only produced an analgesic effect 1 h post-dosing
